Experimental data: patent publication US12667546B2, “Methods for manipulating cell state transitions in cancer” (AGENCY FOR SCIENCE, TECHNOLOGY AND RESEARCH, priority 2018, dated 2026)

What was measured:
[1] = tested on: Estrogen response element (ERE)-luciferase reporter in NAMEC8; experiment: ERE-luciferase activity assay; assay type: cell-based, human
Experimental: ERE luciferase construct was kindly provided by Alan Prem Kumar, CSI, Singapore. To measure the ERE-luciferase activity, cells were seeded 24 h before transfection. ERE-luciferase (1 μg) and NSV-Renilla (0.1 μg) were packaged using Lipofectamine 2000 and transfected into NAMEC8. 24 h post-transfection, cells were reseeded into 96 well plates for drug treatment. Firefly and Renilla luciferase activities were measured with the Dual-Glo Luciferase System (Promega) 24 h post-treatment.

[2] = tested on: NAMEC8-SERPINE1prom-Luc cells; experiment: Renilla-luciferase (constitutive CMV promoter) readout for cell numbers; assay type: cell-based, human; conditions: primary screen, Renilla as readout for cell numbers, relative to DMSO
[3] = tested on: SUM159; experiment: Cell morphology of treated SUM159; assay type: cell-based, human; conditions: bexarotene, TTNPB 1 μM
Experimental: HMLE-Twist-ER cells were generated as described. For EMT-induction, 100 nM of 4-hydroxytamoxifen in ethanol was added to the culture medium every 48 h to induce Twist expression. Control cells were treated with ethanol. MCF7-Slug+Sox9 cells were generated as previously described. HMLE-Zeb1 cells were generated by infection with FUW-Zeb1 and rTTA. Doxycycline was added to the culture medium every 48 h to induce Zeb1 expression. To generate tumorigenic cells from NAMEC8, cells were infected with pWZL-Blast-Ras. MCF7, MCF7-Ras, SUM159 were maintained as previously described. All cell cultures were maintained at 37° C. with 5% CO2.

[4] = tested on: SUM159; experiment: Tumor growth of ex vivo pre-treated SUM159 injected subcutaneously; assay type: in vivo, NSG mice; conditions: short-term (14 days) ex vivo treatment before transplantation
Experimental: (§1) All animal experiments were approved by the Agency for Science Technology and Research Singapore-Biological Resource Centre IACUC (Protocol number 140940). For pre-treated SUM159 and MCF7-Ras cells, 1×10^6 cells were suspended in 100 μl media containing 50% matrigel and injected subcutaneously into both flanks of female NSG mice. The NSG mice were checked for tumor by palpation once a week and tumors were harvested when they reached ˜15 mm in diameter. For treatment in NSG mice, 1×10^5 NAMEC8-Ras cells were suspended in 100 μl media containing 50% matrigel and injected subcutaneously into both flanks of NSG mice. The NSG mice were checked for tumor formation by palpation and when tumors were about 3 mm, mice were randomized into two groups: vehicle (5% DMSO in corn oil) and treatment (Bexarotene, 100 mg/kg/day oral dosing). Tumor size was measured every week using Vernier calipers and mice were sacrificed when tumors reached ˜15 mm or after ˜4 weeks of treatment. For patient-derived cells, 2×10^6 cells were injected subcutaneously per site in NSG mice.

[5] = tested on: SERPINE1prom-Luc reporter in NAMEC8 cells; experiment: Dual-Glo luciferase assay of SERPINE1prom-Luc reporter (FF/Ren); assay type: cell-based, human; conditions: for dose-dependent change of SERPINE1 promoter activity: dose response (metabolic hits 10 nM to 2 μM; epigenetic hits six concentrations)
Source text: pGreenFire1-mCMV was cut using ClaI and SpeI and gel purified. Promoter sequences of genes Zeb1, Serpine1, CDH1, CD24, CD44, CD166 were amplified from human genomic DNA with pre-designed primers containing ClaI and SpeI restriction cut sites using AccuPrime Taq DNA Polymerase (Thermo Fisher Scientific). PCR products were then digested with restriction enzymes and gel-purified. Vector was ligated with PCR insert using Quick Ligase (Fermentas) and transformed into Stb12 competent cells. Colonies were picked and inoculated into TB media with ampicillin. Plasmids were then isolated using a plasmid miniprep kit (Qiagen) and sent for sequencing (1 stBASE Laboratories). After verifying the plasmid sequence, transfection into HEK293 cells was carried out to generate lentivirus. Transfection was carried out using FuGENE 6 (Promega). Viral supernatant was harvested at 24 h and 48 h. NAMEC8 cells were then infected twice with virus using polybrene ([…]) and checked for good transduction efficiency using Dual-Glo Luciferase System (Promega).
Stock plates of compound libraries were kindly prepared by GIS CHiP facility at 1 mM concentration in DMSO. NAMEC8-SERPINE1prom-Luc cells were seeded into 384 well plates at a density of 700 cells/well in a total volume of 50 μl, using an automated dispensing system (BioTek). 0.5 μl of compounds were then added to the wells the following day using a robotic pin transfer with a Bravo workstation (Agilent Technologies). Cells were then grown for 3 days and promoter-luciferase activity was measured using the Dual-Glo Luciferase System (Promega).
Assay was carried out according to manufacturer's instructions. To measure luciferase activity in 384 well plates, media was first removed from the plate. Firefly luciferase activity was determined by adding 30 μl Dual-Glo Luciferase substrate (Promega) to the wells and incubated for 10 min before measuring luminescence using a TECAN M1000 Pro plate reader. 15 μl Dual-Glo Stop & Glo substrate was then added to the wells, incubated for 10 min and measuring luminescence on the plate reader to determine Renilla luciferase activity. Promoter luciferase activity is then calculated by taking Firefly luciferase over Renilla luciferase.

[6] = tested on: NAMEC8; experiment: Cell morphology of treated NAMEC8; assay type: cell-based, human; conditions: bexarotene, TTNPB, SGC-CBP30, UNC0642, A-485 1 μM, LLY-283, GSK591 20 nM, C-IN-1 500 nM
Experimental: Human mammary epithelial cell lines (HMLE) were generated as described and immortalized using retroviral vectors to express the catalytic subunit of the human telomerase enzyme, hTERT and the SV-40 Large T antigen. NAMEC8 was generated as described. Briefly, HMLE cells were grown to 50% confluency, followed by differential trypsinization for 1 minute with 0.05% trypsin. Detached cells were carefully collected and re-plated at approximately 200 cells per well of a 24-well plate. Upon expansion, wells were screened for populations that were morphologically mesenchymal and can be stably propagated. Clonal and non-clonal NAMEC cell lines were generated. NAMEC8 is a non-clonal line derived from at least 200 mesenchymal cells. HMLE cells and NAMECs were maintained in MEGM (Lonza).

[7] = tested on: NAMEC8; experiment: Expression of EMT and lineage markers (qRT-PCR, immunoblot, immunofluorescence) in NAMEC8; assay type: cell-based, human; conditions: transcript and protein
Experimental: Cells were rinsed twice in ice-cold PBS. Total RNA was extracted using Trizol (Invitrogen) and column-purified with RNeasy kits (Qiagen). cDNA synthesis was performed with 500 ng of total RNA at 37° C. for 2 h using the SuperScript III First-Strand Synthesis System (Thermo Fisher Scientific), and subsequently diluted 5-fold. mRNA levels were measured with gene-specific primers listed below using the ABI Prism 7900HT Sequence Detection System 2.2 (Applied Biosystems). Results were normalized to GAPDH and analyzed using SDS 2.2 software.
Cells were harvested and scraped from culture dishes in ice-cold PBS. They were then centrifuged at 12000 rpm for 5 min at 4° C. The pellets were then snap frozen in liquid nitrogen or lysed in ice-cold RIPA lysis buffer (Thermo Scientific) and left on ice for 30 min. Subsequently, the lysates were centrifuged at 12000 rpm for 10 min at 4° C. The supernatants were then aspirated and placed in fresh tubes. Protein concentrations were determined using Coomaisse Blue. 50-80 μg total protein was mixed with NuPAGE™ LDS sample buffer and heated at 70° C. for 10 min. Samples were loaded into NuPAGE™ 4-12% Bis-Tris gels (precast polyacrylamide gel; Invitrogen™). Gel electrophoresis was done at 200V for 1.5 h and then blotted onto nitrocellulose membranes (Trans-Blot Turbo™ transfer pack; Bio-Rad). The membranes were blocked with 5% skimmed milk in Tris-buffered saline (TBS; 1st BASE) with 0.1% Tween-20 (Santa Cruz), and then incubated with primary antibodies overnight at 4° C. Thereafter, the membranes were incubated with a horseradish peroxidase (HRP)-conjugated secondary antibody at room temperature for one hour. Finally, the immunoreactive proteins were visualized by using an enhanced chemiluminescent (ECL) reagent (Thermo Scientific, 34075) with the Chemidoc™ Imager (Bio-Rad, 17001401).
Cell cultures were fixed in 4% paraformaldehyde and permeabilized with 0.25% Triton X-100, followed by blocking with 1% bovine serum albumin in PBST. Cells were incubated in specific primary antibodies, followed by the appropriate secondary antibodies conjugated with Alexa Fluor-488 or -594 (Molecular Probes). Cell nuclei were then stained with DAPI and then viewed and imaged with an Axio Observer D1 epifluorescence microscope with a built-in AxioCamMR3 camera (Zeiss), using the optimal filters and 100-200× magnifications.

[8] = tested on: NAMEC8; experiment: Mammosphere assay, NAMEC8; assay type: cell-based, human; conditions: NAMEC8, pre-treated cells
Experimental: For mammosphere culture, cells were seeded onto 96-well ultralow-adherence plates at 700 cells/well in Mammocult medium (Stem Cell Technologies) supplemented with 4 μg/ml heparin, 0.5 μg/ml hydrocortisone and 1% methylcellulose. Spheres (>100 μm) were counted at 7-10 days later.

[9] = tested on: MCF7-Ras; experiment: Tumor growth of ex vivo pre-treated MCF7-Ras injected subcutaneously; assay type: in vivo, NSG mice; conditions: ex vivo treatment before injection
Experimental: as §1

[10] = tested on: NAMEC8; experiment: Lipid droplet staining (Bodipy); assay type: cell-based, human; conditions: NAMEC8, with bexarotene
Experimental: Intracellular lipid droplets were visualized with fluorescent Bodipy dye. Cells in culture were fixed in 4% paraformaldehyde for 15 min at room temperature, rinsed twice with PBS and permeabilized with 0.2% TritonX-100 in PBS for 10 min and incubated with Bodipy diluted in PBS (final concentration 1 μg/ml) for overnight at 4° C. Cells were washed with PBS and stained with DAPI. Fluorescence images were obtained with an Axio Observer D1 epifluorescence microscope with a built-in AxioCamMR3 camera (Zeiss), using the optimal filters and 100-200× magnifications.

[11] = tested on: SUM159 PACR cells; experiment: Cell viability IC50 in SUM159 PACR cells; conditions: SUM159 PACR vs SUM159 PT

With `C/C(=C\c1ccc(C(=O)O)cc1)c1ccc2c(c1)C(C)(C)CCC2(C)C` [TTNPB] the ERE-luciferase reporter activity [1] was “increased”, the “% Avr Renilla from DMSO” value [2] was 58.46% and the cell morphology [3] was “dramatic change in morphology from scattered, spindle and fibroblastic-like cells to an epithelial-like morphology”. For the same compound, the tumorigenic potential [4] was “severely crippled their tumorigenic potential for up till seven weeks post-transplantation”, the “Avr FF/Renilla from DMSO” value ([5]; primary screen, NAMEC8-SERPINE1prom-Luc cells grown 3 days with compound, relative to DMSO) was 0.19 and the cell morphology [6] was “dramatic change in morphology from scattered, spindle and fibroblastic-like cells to an epithelial-like morphology”.

With `CN(C)c1ccc(C2Nc3ccc4ccccc4c3C3=C2C(=O)CC(C)(C)C3)cc1Br` (centres unmarked) [Glutaminase C-IN-1] the “dose-dependent change of SERPINE1 promoter activity” value [5] was “dose dependent decrease in SERPINE1 promoter activity”, the “dose-dependent change of SERPINE1 promoter activity” value ([5]; listed as C-IN-1) was “dose-response effect of decreasing SERPINE1 promoter activity” and the “expression of EMT and basal/luminal markers” value [7] was “mesenchymal proteins Zeb1, fibronectin, Slug and Snail were decreased, epithelial E-Cadherin was increased”. For the same compound, the cell morphology [6] was “morphological change from a scattered distribution typically observed in mesenchymal cells to tight clusters of epithelial islands”.

In the case of `O=C(NC[C@H](O)CN1CCc2ccccc2C1)c1ccnc(NC2CCC2)c1` [GSK591], the mammosphere formation [8] is reported as “significantly reduce the size and number of spheres formed” and the “expression of EMT and basal/luminal markers” value [7] is reported as “no apparent change was observed”.

`CC1=C(/C=C/C(C)=C/C=C/C(C)=C/C(=O)O)C(C)(C)CCC1` [Tretinoin (Aberela), Tretinoin] was tested, and the viability at 10 µM ([2]; Homo sapiens, 72 h, read-out: % Avr Renilla from DMSO) was 87%, the tumor cell growth [9] was “no impact on the tumor cell growth was observed” and the activity at 10 µM ([5]; Homo sapiens, 72 h, primary screen, NAMEC8-SERPINE1prom-Luc cells grown 3 days with compound, relative to DMSO, read-out: Avr FF/Renilla from DMSO) was 50%.

With `COc1cc2c(NC3CCN(C(C)C)CC3)nc(N3CCC(F)(F)CC3)nc2cc1OCCCN1CCCC1` [UNC0642] the “expression of EMT and basal/luminal markers” value [7] was “no apparent change was observed”.

In the case of `COc1cc(C)c(C(=O)Oc2cc(C)c(C(=O)Oc3cc(C)c(C(=O)NC(C)C(=O)O)c(O)c3)c(O)c2)c(OC)c1` (centres unmarked) [AmidepsineA], the “accumulation of lipid droplets during retinoid treatment” value [10] is reported as “clear reductions in the accumulation of lipid droplets during retinoid treatment” and the “expression of EMT and basal/luminal markers” value [7] is reported as “the gain in epithelial-luminal gene markers such as E-cadherin, KRT8, and MUC1 were suppressed”.

In the case of `CC(=O)O[C@H]1C(=O)[C@@]2(C)[C@H]([C@H](OC(=O)c3ccccc3)[C@]3(O)C[C@H](OC(=O)[C@H](O)[C@@H](NC(=O)c4ccccc4)c4ccccc4)C(C)=C1C3(C)C)[C@]1(OC(C)=O)CO[C@@H]1C[C@@H]2O` [paclitaxel], the “increase in paclitaxel-resistance, PACR vs parental (PT) cells” value [11] is reported as over 20 fold.

For `Nc1ncnc2c1ccn2[C@@H]1O[C@H]([C@H](O)c2ccccc2)[C@@H](O)[C@H]1O` [LLY-283], the mammosphere formation [8] was “significantly reduce the size and number of spheres formed” and the “expression of EMT and basal/luminal markers” value [7] was “no apparent change was observed”.

With `CCCCCCCCCS(=O)(=O)Nc1ccccc1C(=O)O` [FSG67] the “accumulation of lipid droplets during retinoid treatment” value [10] was “clear reductions in the accumulation of lipid droplets during retinoid treatment” and the “expression of EMT and basal/luminal markers” value [7] was “the gain in epithelial-luminal gene markers such as E-cadherin, KRT8, and MUC1 were suppressed”.
